From US11826351B2, “Compounds useful as kinase inhibitors” (Loxo Oncology, Inc., priority 2015, dated 2023)

What was measured:
[1] = biological target: T1, Recombinant BTK^C481S kinase (Homo sapiens, UniProt Q06187, C481S); experiment: BTK C481S binding affinity (LanthaScreen TR-FRET); conditions: Kinase Tracer 236, 5 h incubation
T1 construct: purchased SignalChem
In short: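 BTK C481S tracer-displacement TR-FRET: 5 nM His-tagged kinase, 2 nM Eu anti-His antibody and 30 nM Kinase Tracer 236 incubated with titrated inhibitor for 5 h in Kinase Buffer A. Read at 340 nm excitation, 615/665 nm emission; IC50 from variable-slope log[inhibitor]–response fit.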

[2] = biological target: T2, Recombinant BTK^WT kinase (Homo sapiens, UniProt Q06187); experiment: BTK WT binding affinity (LanthaScreen TR-FRET); conditions: Kinase Tracer 236, 5 h incubation
T2 construct: purchased Invitrogen
T2 sequence (Q06187 whole entry): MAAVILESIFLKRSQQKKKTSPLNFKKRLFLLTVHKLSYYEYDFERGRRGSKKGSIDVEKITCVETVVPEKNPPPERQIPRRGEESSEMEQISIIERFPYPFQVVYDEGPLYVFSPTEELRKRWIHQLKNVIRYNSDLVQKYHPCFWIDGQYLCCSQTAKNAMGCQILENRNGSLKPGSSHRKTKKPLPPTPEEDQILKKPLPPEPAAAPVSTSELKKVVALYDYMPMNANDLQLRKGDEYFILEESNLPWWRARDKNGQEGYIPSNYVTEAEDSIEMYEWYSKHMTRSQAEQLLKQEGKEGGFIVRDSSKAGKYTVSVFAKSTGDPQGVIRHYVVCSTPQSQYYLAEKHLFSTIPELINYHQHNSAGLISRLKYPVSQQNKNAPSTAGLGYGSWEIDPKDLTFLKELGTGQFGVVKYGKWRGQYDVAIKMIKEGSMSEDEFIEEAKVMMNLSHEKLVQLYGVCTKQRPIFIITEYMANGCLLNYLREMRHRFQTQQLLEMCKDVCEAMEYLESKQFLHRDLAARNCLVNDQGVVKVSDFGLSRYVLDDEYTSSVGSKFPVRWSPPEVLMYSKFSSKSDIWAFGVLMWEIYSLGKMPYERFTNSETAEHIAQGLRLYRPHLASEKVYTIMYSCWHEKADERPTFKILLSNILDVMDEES
In short: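 Tracer-displacement TR-FRET: 2.5 nM recombinant BTK^WT, 2 nM Eu anti-His antibody and 15 nM Kinase Tracer 236 incubated with varying inhibitor concentrations for 5 h in Kinase Buffer A. Signal read at 340 nm excitation, 615/665 nm emission; IC50 from variable-slope log[inhibitor]–response fit.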

[3] = test system: OCI-Ly10 human DLBCL cells; experiment: OCI-Ly10 anti-proliferative activity (Resazurin); assay type: cell-based; conditions: Homo sapiens, OCI-Ly10, 72 h, OCI-Ly10 cells, 72 h compound treatment, Resazurin; read-out: Proliferation Assay OCI-Ly10-20% FBS
In short: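 OCI-Ly10 human DLBCL cells, whose growth depends on NFκB signalling, were seeded at 7.5×10^3 cells per well in 96-well plates with a range of compound concentrations and kept at 37° C for 72 h. Resazurin was then added, and after 5 h fluorescence was read at 590 nm.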

Recombinant EGFR = biological target: T3, Recombinant EGFR (Homo sapiens, UniProt P00533); experiment: EGFR binding affinity (LanthaScreen TR-FRET); conditions: Kinase Tracer 199, 5 h incubation
T3 construct: purchased Invitrogen
T3 sequence (P00533 25-1210): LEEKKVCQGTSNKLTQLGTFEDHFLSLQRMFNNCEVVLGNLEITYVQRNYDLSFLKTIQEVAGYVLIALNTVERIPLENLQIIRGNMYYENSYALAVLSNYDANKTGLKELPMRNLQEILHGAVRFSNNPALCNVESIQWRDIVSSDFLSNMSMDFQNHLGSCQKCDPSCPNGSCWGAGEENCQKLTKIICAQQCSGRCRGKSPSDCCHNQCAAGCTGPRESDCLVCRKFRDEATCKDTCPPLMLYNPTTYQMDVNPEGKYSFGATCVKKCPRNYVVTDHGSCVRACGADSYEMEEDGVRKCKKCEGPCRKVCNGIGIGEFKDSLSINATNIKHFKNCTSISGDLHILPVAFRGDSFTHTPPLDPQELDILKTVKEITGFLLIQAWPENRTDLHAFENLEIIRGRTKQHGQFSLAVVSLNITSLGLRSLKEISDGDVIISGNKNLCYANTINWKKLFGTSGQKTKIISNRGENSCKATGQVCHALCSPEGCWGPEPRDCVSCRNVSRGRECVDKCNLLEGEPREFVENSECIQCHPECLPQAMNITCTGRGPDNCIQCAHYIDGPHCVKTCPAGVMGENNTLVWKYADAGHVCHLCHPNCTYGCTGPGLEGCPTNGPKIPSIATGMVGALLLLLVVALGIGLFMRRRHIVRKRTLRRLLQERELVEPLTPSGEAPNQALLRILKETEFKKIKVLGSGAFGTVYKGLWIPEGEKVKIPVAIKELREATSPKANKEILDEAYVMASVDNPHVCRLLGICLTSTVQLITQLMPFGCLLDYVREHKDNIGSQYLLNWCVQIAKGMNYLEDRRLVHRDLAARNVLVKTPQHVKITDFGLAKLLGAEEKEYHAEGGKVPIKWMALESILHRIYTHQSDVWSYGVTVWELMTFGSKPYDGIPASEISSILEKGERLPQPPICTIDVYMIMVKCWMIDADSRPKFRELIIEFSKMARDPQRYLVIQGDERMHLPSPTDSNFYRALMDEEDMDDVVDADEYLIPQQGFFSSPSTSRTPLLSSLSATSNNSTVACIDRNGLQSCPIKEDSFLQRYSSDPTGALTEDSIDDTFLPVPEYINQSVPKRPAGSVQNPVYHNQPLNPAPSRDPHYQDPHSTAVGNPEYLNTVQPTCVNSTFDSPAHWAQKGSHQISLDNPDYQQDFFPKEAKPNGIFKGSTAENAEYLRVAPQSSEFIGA
In short: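 TR-FRET binding (LanthaScreen) with recombinant EGFR; signal measured across a compound concentration range. IC50 obtained by fitting RFU against log[inhibitor] to a variable-slope model.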

T1 sequence (Q06187 whole entry C481S): as the sequence (Q06187 whole entry) above, with C481S counted along it

Structure (SMILES)	IC50 [1] [nM]	IC50 [2] [nM]	IC50 [3] [nM]	IC50 (Recombinant EGFR) [nM]
COc1ccccc1C(=O)NCc1ccc(-c2nn(C3CCOCC3)c(C(F)F)c2C(N)=O)cc1 [Example 108, 5-(difluoromethyl)-3-[4-[[(2-methoxybenzoyl)amino]methyl]phenyl]-1-tetrahydropyran-4-yl-pyrazole-4-carboxamide]	10 to 100	10 to 100	1000 to 10000	> 10000
CNc1c(C(N)=O)c(-c2ccc(CNC(=O)c3ccccc3OC)cc2)nn1-c1cccnc1 [Example 110, 3-[4-[[(2-methoxybenzoyl)amino]methyl]phenyl]-5-(methylamino)-1-(3-pyridyl)pyrazole-4-carboxamide]	10 to 100	10 to 100	1000 to 10000	1000 to 10000
COc1ccccc1C(=O)NCc1ccc(-c2nn([C@H]3CC[C@@H](O)C3)c(N)c2C(N)=O)cc1 (relative stereo) [Example 20, 5-Amino-1-[(1S*,3R*)-3-hydroxycyclopentyl]-3-[4-[[(2-methoxybenzoyl)amino]methyl]phenyl]pyrazole-4-carboxamide]	< 10	< 10	10 to 100	100 to 1000
COc1ccc(F)cc1C(=O)NCc1ccc(-c2nn(C3CCCC3)c(N)c2C(N)=O)c(F)c1F [Example 154, 5-amino-1-cyclopentyl-3-[2,3-difluoro-4-[[(5-fluoro-2-methoxy-benzoyl)amino]methyl]phenyl]pyrazole-4-carboxamide]	< 10	< 10	10 to 100	> 10000
COc1ccccc1C(=O)NCc1cc(-c2nn(C3CCCC3)c(N)c2C(N)=O)ccc1F [Example 118, 5-amino-1-cyclopentyl-3-[4-fluoro-3-[[(2-methoxybenzoyl)amino]methyl]phenyl]pyrazole-4-carboxamide]	10 to 100	100 to 1000	1000 to 10000	1000 to 10000
COc1ccccc1C(=O)NCc1ccc(-c2nn(C3CCCC(=O)C3)c(N)c2C(N)=O)cc1 (centres unmarked) [Example 12, 5-amino-3-[4-[[(2-methoxybenzoyl)amino]methyl]phenyl]-1-(3-oxocyclohexyl)pyrazole-4-carboxamide]	100 to 1000	100 to 1000	1000 to 10000	> 10000

Next, values leading:

IC50 [1] [nM]	IC50 [2] [nM]	IC50 [3] [nM]	IC50 (Recombinant EGFR) [nM]	Structure (SMILES)
< 10	< 10	10 to 100	1000 to 10000	COc1ccc(F)cc1C(=O)NCc1ccc(-c2nn(C3CCCOC3)c(N)c2C(N)=O)cc1 (centres unmarked) [Example 113, 5-amino-3-[4-[[(5-fluoro-2-methoxy-benzoyl)amino]methyl]phenyl]-1-tetrahydropyran-3-yl-pyrazole-4-carboxamide]
< 10	< 10	100 to 1000	100 to 1000	COc1ccccc1C(=O)NCc1ccc(-c2nn(C3CCCC(O)C3)c(N)c2C(N)=O)cc1 (centres unmarked) [Example 48, 5-amino-1-(3-hydroxycyclohexyl)-3-[4-[[(2-methoxybenzoyl)amino]methyl]phenyl]pyrazole-4-carboxamide]
< 10	< 10	10 to 100	1000 to 10000	COc1ccccc1C(=O)NCc1ccc(-c2nn(C3CCCOC3)c(N)c2C(N)=O)cc1F (centres unmarked) [Example 117, 5-amino-3-[3-fluoro-4-[[(2-methoxybenzoyl)amino]methyl]phenyl]-1-tetrahydropyran-3-yl-pyrazole-4-carboxamide]
< 10	< 10	10 to 100	1000 to 10000	COc1ccc(F)cc1C(=O)NCc1ccc(-c2nn(CC(F)(F)F)c(N)c2C(N)=O)cc1F [Example 128, 5-amino-3-[3-fluoro-4-[[(5-fluoro-2-methoxy-benzoyl)amino]methyl]phenyl]-1-(2,2,2-trifluoroethyl)pyrazole-4-carboxamide]
< 10	< 10	< 10	10 to 100	COc1ccccc1C(=O)NCc1ccc(-c2nn(C3CCC(C)(C)CC3)c(N)c2C(N)=O)cc1 [Example 26, 5-Amino-1-(4,4-dimethylcyclohexyl)-3-[4-[[(2-methoxybenzoyl)amino]methyl]phenyl]pyrazole-4-carboxamide]
